According to paper PMC8100298, “Histone deacetylase inhibitor resminostat in combination with sorafenib counteracts platelet-mediated pro-tumoral effects in hepatocellular carcinoma” (Scientific Reports, 2021):
pEC50: −log10 of the molar value. Read-outs that look alike come from different tables or passages of the source.

Columns and labels:
Assay in all cases: Efficacy screening assay
Assay type in all cases: cell-based
UO31 = settings: UO31, kidney; for pEC50: read-out: EC50
Procedure: (§1) The experiment was performed by Oncolead GmbH & Co. KG (Karlsfeld , Germany), based on a standardized screening procedure . Cell lines were purchased directly from the ATCC, NCI and DSMZ cell line c ollections. Cells used for the study had undergone less than 20 passages. To ensure the absence of potential contamination and wrong assignment, all cell lines were tested using a whole genome assay (Agilent, USA). All cell lines were grown as recommended by the suppliers and with addition of 100 U/mL penicillin G and 100 µg/mL; streptomycin. Cell growth and treatments were performed in Nunclon D 96 -well plates (NUNC, Germany). The optimal seeding density for each cell line was determined to ensure exponential growth for the duration of the experiment. All cells growing without anti-cancer agents were sub-conﬂuent by the end of the treatment, as determined by visual inspection.
(§2) After an initial 24 h pre-growth period, the compounds were added. The vehicle concentration […]
(§3) was 0.1% DMSO. After incubation at 37°C for 72 h, the culture medium was aspirated, and the cells were precipitated by the addition of 10% trichloroacetic acid (Sigma-Aldrich, Missouri, US). After overnight incubation at 4°C, the plates were washed three times with deionized water. The precipitates were then stained with SRB (0.4% wt/v sulforhodamine B solution in 1% acetic acid, Sigma-Aldrich, Missouri, US). Afterwards, the plates were washed six times with 1% acetic acid to remove unbound stain. After drying the plates at room temperature, the bound SRB was solubilized with 10 mM Tris base and the optical density was measured at 520 nm using a Victor2 plate reader (Perkin Elmer, Germany). Blank OD values were subtracted from mean OD values for each concentration. The nonlinear curve ﬁtting and EC50 calculations were per formed using XLﬁt and algorithm “205” (ID Business […]
(§4) For comparison of EC50 values in Figure 1F, one-way ANOVA with multiple comparison testing (Tukey) was performed. Multiplicity adjusted p -values for the EC50 with sorafenib versus resminostat for each cell line and comparison between cell lines for sorafenib are presented (95% confidence interval for significance testing). For comparison of EC50 data in Figure 2B, one-way ANOVA with multiple comparison testing (Tukey) was performed. Multiplicity adjusted p-values with 95% confidence interval was applied. For the invasion assays in Figure 4, one-way ANOVA with multiple comparison testing (Tukey) was performed. Multiplicity adjusted p-values with 95% confidence interval was applied. The adjusted p-values comparing vehicle control without vs. with platelets and compound

HELA = settings: 72 h, cervix; for pEC50: read-out: EC50
Procedure: as §1, §2, §3, §4

T24 = settings: T24, bladder; for pEC50: read-out: EC50
Procedure: as §1, §2, §3, §4

HCT116 = settings: HCT116, colon; for pEC50: read-out: EC50
Procedure: as §1, §2, §3, §4

SKNAS = settings: 72 h, brain; for pEC50: read-out: EC50
Procedure: as §1, §2, §3, §4

PC3 = settings: Homo sapiens, PC-3, PC3, prostate, 72 h
Procedure: as §1, §2, §3, §4

SF268 = settings: SF268, brain; for pEC50: read-out: EC50
Procedure: as §1, §2, §3, §4

HCT15 = settings: HCT15, colon; for pEC50: read-out: EC50
Procedure: as §1, §2, §3, §4

HT29 = settings: HT29, colon; for pEC50: read-out: EC50
Procedure: as §1, §2, §3, §4

SKNSH = settings: 72 h, brain; for pEC50: read-out: EC50
Procedure: as §1, §2, §3, §4

U2OS = settings: 72 h, bone; for pEC50: read-out: EC50
Procedure: as §1, §2, §3, §4

CLS439 = test system: CLS439
Procedure: as §1, §2, §3, §4

SKMEL5 = settings: SKMEL5, skin; for pEC50: read-out: EC50
Procedure: as §1, §2, §3, §4

OVCAR4 = settings: OVCAR4, ovary; for pEC50: read-out: EC50
Procedure: as §1, §2, §3, §4

PLCPRF5 = settings: Homo sapiens, PLC-PRF-5, PLCPRF5, liver, 72 h
Procedure: as §1, §2, §3, §4

PANC1 = settings: PANC1, pancreas; for pEC50: read-out: EC50
Procedure: as §1, §2, §3, §4

RD = settings: 72 h, muscle; for pEC50: read-out: EC50
Procedure: as §1, §2, §3, §4

[1] = log of EC50, negative, read-out: log(EC50) (converted)
[2] = Homo sapiens, log of EC50, negative, read-out: log(EC50) (converted)

Compound: CN(C)Cc1ccc(S(=O)(=O)n2ccc(/C=C/C(=O)NO)c2)cc1 [resminostat, Resminostat]
- EC50 (UO31; Homo sapiens, UO-31, 72 h, log of EC50, negative, read-out: log(EC50) (converted)): 72.4 nM
- pEC50 (UO31; Homo sapiens, UO-31, 72 h): 7.14
- pEC50 (UO31; 72 h): 7.15
- EC50 (HELA; Homo sapiens, HeLa, log of EC50, negative, read-out: log(EC50) (converted)): 3310 nM
- pEC50 (HELA; Homo sapiens, HeLa): 5.48
- pEC50 (HELA): 5.48
- EC50 (T24; Homo sapiens, T-24, 72 h, log of EC50, negative, read-out: log(EC50) (converted)): 933 nM
- pEC50 (T24; Homo sapiens, T-24, 72 h): 6.03
- pEC50 (T24; 72 h): 6.03
- pEC50 (HCT116; 72 h): 6.10
- EC50 (HCT116; Homo sapiens, HCT-116, 72 h, log of EC50, negative, read-out: log(EC50) (converted)): 794 nM
- pEC50 (HCT116; Homo sapiens, HCT-116, 72 h): 6.10
- EC50 (SKNAS; Homo sapiens, SK-N-AS, log of EC50, negative, read-out: log(EC50) (converted)): 3550 nM
- pEC50 (SKNAS; Homo sapiens, SK-N-AS): 5.45
- pEC50 (SKNAS): 5.45
- EC50 (PC3; [1]): 1700 nM
- pEC50 (PC3; read-out: EC50): 5.77
- EC50 (SF268; Homo sapiens, SF-268, 72 h, log of EC50, negative, read-out: log(EC50) (converted)): 2190 nM
- pEC50 (SF268; Homo sapiens, SF-268, 72 h): 5.66
- pEC50 (SF268; 72 h): 5.66
- pEC50 (HCT15; 72 h): 5.68
- EC50 (HCT15; Homo sapiens, HCT-15, 72 h, log of EC50, negative, read-out: log(EC50) (converted)): 2090 nM
- pEC50 (HCT15; Homo sapiens, HCT-15, 72 h): 5.68
- pEC50 (HT29; 72 h): 5.52
- EC50 (HT29; Homo sapiens, HT-29, 72 h, log of EC50, negative, read-out: log(EC50) (converted)): 3020 nM
- pEC50 (HT29; Homo sapiens, HT-29, 72 h): 5.52
- EC50 (SKNSH; Homo sapiens, SK-N-SH, log of EC50, negative, read-out: log(EC50) (converted)): 3630 nM
- pEC50 (SKNSH; Homo sapiens, SK-N-SH): 5.44
- pEC50 (SKNSH): 5.44
- EC50 (U2OS; [2]): 1170 nM
- pEC50 (U2OS; Homo sapiens): 5.93
- pEC50 (U2OS): 5.94
- EC50 (CLS439; 72 h, CLS439, bladder, log of EC50, negative, read-out: log(EC50) (converted)): 776 nM
- pEC50 (CLS439; 72 h, CLS439, bladder, read-out: EC50): 6.11
- pEC50 (CLS439; CLS439, bladder; 72 h; read-out: EC50): 6.11
- EC50 (SKMEL5; Homo sapiens, SK-MEL-5, 72 h, log of EC50, negative, read-out: log(EC50) (converted)): 1700 nM
- pEC50 (SKMEL5; Homo sapiens, SK-MEL-5, 72 h): 5.77
- pEC50 (SKMEL5; 72 h): 5.77
- EC50 (OVCAR4; Homo sapiens, OVCAR-4, 72 h, log of EC50, negative, read-out: log(EC50) (converted)): 4070 nM
- pEC50 (OVCAR4; Homo sapiens, OVCAR-4, 72 h): 5.39
- pEC50 (OVCAR4; 72 h): 5.39
- EC50 (PLCPRF5; [1]): 3390 nM
- pEC50 (PLCPRF5; read-out: EC50): 5.47
- EC50 (PANC1; Homo sapiens, PANC-1, 72 h, log of EC50, negative, read-out: log(EC50) (converted)): 6760 nM
- pEC50 (PANC1; Homo sapiens, PANC-1, 72 h): 5.17
- pEC50 (PANC1; 72 h): 5.17
- EC50 (RD; [2]): 1550 nM
- pEC50 (RD; Homo sapiens): 5.82
- pEC50 (RD): 5.82
